How the values were obtained:
Assay type in all cases: cell-based
GABAA receptor α1β2γ2 [1] = target: T1, GABAA receptor α1β2γ2 (Homo sapiens, UniProt P14867+P47870); experiment: whole-cell patch clamp, potentiation of GABA-evoked currents at […]
GABAA receptor α4β3δ = GABAA receptor α4β3δ (Homo sapiens, UniProt P28472+P48169); experiment: whole-cell patch clamp, potentiation of GABA
GABAA receptor α1β2γ2 [2] = target: T1, GABAA receptor α1β2γ2; experiment: whole-cell patch clamp, potentiation of GABA

T1 sequence (P14867 28-456): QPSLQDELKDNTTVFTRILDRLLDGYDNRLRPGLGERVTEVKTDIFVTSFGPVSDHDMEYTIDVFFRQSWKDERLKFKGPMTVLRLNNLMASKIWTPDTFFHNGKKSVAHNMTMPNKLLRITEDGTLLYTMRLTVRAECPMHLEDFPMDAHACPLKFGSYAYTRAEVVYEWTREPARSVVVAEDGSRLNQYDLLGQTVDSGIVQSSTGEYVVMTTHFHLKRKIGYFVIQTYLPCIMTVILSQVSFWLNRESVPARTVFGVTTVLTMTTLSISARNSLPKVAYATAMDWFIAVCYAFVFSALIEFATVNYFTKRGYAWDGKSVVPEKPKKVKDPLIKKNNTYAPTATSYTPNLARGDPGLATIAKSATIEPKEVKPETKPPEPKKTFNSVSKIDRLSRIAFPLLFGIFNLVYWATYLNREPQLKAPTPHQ
T1 sequence (P47870 26-512): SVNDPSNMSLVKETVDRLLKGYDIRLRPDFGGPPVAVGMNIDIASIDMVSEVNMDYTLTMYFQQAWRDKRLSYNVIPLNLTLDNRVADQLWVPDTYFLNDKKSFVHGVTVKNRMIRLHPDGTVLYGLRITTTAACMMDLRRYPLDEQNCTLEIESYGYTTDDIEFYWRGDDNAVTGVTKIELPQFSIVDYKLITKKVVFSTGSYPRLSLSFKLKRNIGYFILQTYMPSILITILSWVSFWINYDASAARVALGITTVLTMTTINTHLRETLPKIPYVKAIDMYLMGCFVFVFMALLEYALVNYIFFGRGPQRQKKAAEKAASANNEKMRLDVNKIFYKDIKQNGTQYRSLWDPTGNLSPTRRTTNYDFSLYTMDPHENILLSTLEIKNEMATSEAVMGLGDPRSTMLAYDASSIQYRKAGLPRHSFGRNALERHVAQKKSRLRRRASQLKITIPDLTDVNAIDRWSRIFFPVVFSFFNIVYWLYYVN
T1 sequence (P18507 40-475 partner): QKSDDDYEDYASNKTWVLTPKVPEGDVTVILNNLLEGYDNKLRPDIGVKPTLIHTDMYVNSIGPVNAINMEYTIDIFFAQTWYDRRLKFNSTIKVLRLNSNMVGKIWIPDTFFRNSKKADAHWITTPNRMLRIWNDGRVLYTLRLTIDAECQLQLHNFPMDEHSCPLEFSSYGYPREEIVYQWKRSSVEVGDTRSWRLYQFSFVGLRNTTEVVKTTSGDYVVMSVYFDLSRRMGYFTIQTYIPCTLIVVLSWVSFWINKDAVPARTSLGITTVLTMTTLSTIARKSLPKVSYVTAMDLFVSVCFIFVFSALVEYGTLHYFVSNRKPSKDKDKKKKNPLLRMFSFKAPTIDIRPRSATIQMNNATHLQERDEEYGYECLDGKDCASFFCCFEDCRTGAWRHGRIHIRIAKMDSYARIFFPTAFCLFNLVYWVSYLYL
GABAA receptor α4β3δ, sequence (P48169 36-554): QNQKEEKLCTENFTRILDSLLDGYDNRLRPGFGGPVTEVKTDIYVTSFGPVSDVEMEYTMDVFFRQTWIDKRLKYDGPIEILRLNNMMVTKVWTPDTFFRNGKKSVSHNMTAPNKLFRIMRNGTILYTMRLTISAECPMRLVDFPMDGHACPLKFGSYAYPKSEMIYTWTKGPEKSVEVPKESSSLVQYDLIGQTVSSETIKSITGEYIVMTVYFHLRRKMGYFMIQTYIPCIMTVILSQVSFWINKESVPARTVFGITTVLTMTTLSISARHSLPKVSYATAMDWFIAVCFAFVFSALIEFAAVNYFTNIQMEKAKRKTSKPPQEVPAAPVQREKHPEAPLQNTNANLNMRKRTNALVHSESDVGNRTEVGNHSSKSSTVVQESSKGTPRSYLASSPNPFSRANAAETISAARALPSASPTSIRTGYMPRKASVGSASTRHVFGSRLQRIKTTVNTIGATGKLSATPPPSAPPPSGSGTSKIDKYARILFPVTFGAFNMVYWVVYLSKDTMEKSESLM
GABAA receptor α4β3δ, sequence (P28472 26-473): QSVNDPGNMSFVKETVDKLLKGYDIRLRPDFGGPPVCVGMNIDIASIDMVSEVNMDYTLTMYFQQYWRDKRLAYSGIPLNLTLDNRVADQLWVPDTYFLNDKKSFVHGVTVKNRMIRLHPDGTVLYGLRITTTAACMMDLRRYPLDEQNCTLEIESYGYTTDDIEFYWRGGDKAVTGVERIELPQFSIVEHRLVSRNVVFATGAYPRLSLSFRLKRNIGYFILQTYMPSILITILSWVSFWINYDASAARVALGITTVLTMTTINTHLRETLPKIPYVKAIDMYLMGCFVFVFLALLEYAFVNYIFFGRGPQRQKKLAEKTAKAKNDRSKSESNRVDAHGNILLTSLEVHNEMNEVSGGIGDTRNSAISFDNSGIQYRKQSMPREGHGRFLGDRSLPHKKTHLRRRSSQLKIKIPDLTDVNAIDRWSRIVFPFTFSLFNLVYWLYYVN
GABAA receptor α4β3δ, sequence (O14764 25-452 partner): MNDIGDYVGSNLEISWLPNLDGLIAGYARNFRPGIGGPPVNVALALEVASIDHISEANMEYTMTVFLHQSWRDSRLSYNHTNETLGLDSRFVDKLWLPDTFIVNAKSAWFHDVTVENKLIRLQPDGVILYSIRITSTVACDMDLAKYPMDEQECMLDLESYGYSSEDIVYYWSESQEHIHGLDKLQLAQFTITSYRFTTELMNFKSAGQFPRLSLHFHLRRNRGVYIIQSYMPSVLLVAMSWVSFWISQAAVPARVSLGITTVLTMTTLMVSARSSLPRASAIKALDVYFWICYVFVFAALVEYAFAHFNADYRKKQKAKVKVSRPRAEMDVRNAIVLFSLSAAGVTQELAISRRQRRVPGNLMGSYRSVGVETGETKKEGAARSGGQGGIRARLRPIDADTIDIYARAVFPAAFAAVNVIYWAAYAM

| Compound | % potentiation at 10 μM (GABAA receptor α1β2γ2 [1]) | EC50 (GABAA receptor α4β3δ) | EC50 (GABAA receptor α1β2γ2 [2]) |
| --- | --- | --- | --- |
| SGE-872 | 744 % potentiation at 10 µM | 160 nM | – |
| CC(=O)[C@H]1CC[C@H]2[C@@H]3CC[C@H]4C[C@H](O)CC[C@]4(C)[C@H]3CC[C@]12C [allopregnanolone] | – | 80 nM | 185 nM |

— article PMC5544527 (Journal of neuroscience research, 2015)
